Where a name gives a salt, the structure may show the parent alone.
Molecular target: MASP-2 CCP2-SP (Homo sapiens (Human), UniProt O00187)
Test: MASP-2 co-crystallization, X-ray crystallography and structure analysis (H-bonds, van der Waals contacts);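 as to Ligand-pharmacophore element distance, pharmacophore element C2: distance from averaged pharmacophore element to bound ligand; missing value means element absent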;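 as to Ligand-pharmacophore element distance, pharmacophore element C3: distance from averaged pharmacophore element to bound ligand; missing value means element absent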;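 as to Ligand-pharmacophore element distance, pharmacophore element C4: distance from averaged pharmacophore element to bound ligand; missing value means element absent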;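 as to Ligand-pharmacophore element distance, pharmacophore element C5: distance from averaged pharmacophore element to bound ligand; missing value means element absent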
Parameters: van der Waals contact distance, MASP-2 HIS 483 atom CD2 / van der Waals contact distance, MASP-2 HIS 483 atom NE2 / van der Waals contact distance, SER 654 C to compound atom / van der Waals contact distance, SER 654 O to compound atom / van der Waals contact distance, TRP 655 C to compound atom / van der Waals contact distance, MASP-2 GLY 528 atom CA / van der Waals contact distance TRP 655 atom CZ3 / van der Waals contact distance TRP 655 atom N / van der Waals contact distance TRP 655 atom CE3 / van der Waals contact distance GLY 656 atom C / van der Waals contact distance GLY 656 atom CA / van der Waals contact distance GLY 656 atom O / van der Waals contact distance, MASP-2 TYR 607 atom CD1 / van der Waals contact distance, MASP-2 PRO 606 atom O / d(C3,CA1) / d(CA1,N1)2 / d(H4,O1) / d(H4,O2) / d(O1,O2) / d(CA1,O2) / d(CA6,O1) / d(CA6,O2) / d(CA1,C5) / d(O2,H3) / d(N2,C2) / d(CA5,N2) / d(N2,C4) / d(N2,C6) / d(N2,CA3) / d(N2,O3) / d(O4,H2): unit not given beside the values
Conditions: for H-bond distance to MASP-2 ASP 627 atom OD2: ASP 627 OD2; for H-bond distance to MASP-2 GLY 656 atom N: GLY 656 N; for H-bond distance to MASP-2 SER 654 atom O: SER 654 O; for H-bond distance to MASP-2 SER 657 atom O: SER 657 O; for van der Waals contact distance TRP 655 atom CE3: MASP-2 TRP 655 CE3, compound atom in line below; for van der Waals contact distance TRP 655 atom CZ3: MASP-2 TRP 655 CZ3; for Ligand-pharmacophore element distance, pharmacophore element C2 / Ligand-pharmacophore element distance, pharmacophore element C3 / Ligand-pharmacophore element distance, pharmacophore element C4 / Ligand-pharmacophore element distance, pharmacophore element C5 / Ligand-pharmacophore element distance, pharmacophore element C6 / Ligand-pharmacophore element distance, pharmacophore element C7 / Ligand-pharmacophore element distance, pharmacophore element CA1 / Ligand-pharmacophore element distance, pharmacophore element CA2 / Ligand-pharmacophore element distance, pharmacophore element CA3 / Ligand-pharmacophore element distance, pharmacophore element CA4 / Ligand-pharmacophore element distance, pharmacophore element CA5 / Ligand-pharmacophore element distance, pharmacophore element CA6: Table A4-1; for d(C3,CA1) / d(CA1,N1)2 / d(CA1,O1) / d(CA1,O2) / d(H4,O1) / d(H4,O2) / d(O1,O2): Table A5-1 pharmacophore: distance between elements, S2/S1 region; for a(C3, CA1, O1) / a(CA1, O1, O2) / a(O1, O2, H4) / a(N1, CA1, O1) b): Table A6-1 pharmacophore angle; for a(N1, CA1, O1) b): Methyl-amino-pyridine compounds
How it was run: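 E. coli-expressed CCP2-SP (±6His); apo crystals soaked 1–2× in inhibitor-containing crystallization solution; optional 20% glycerol cryoprotection, LN2 flash-cool; synchrotron data at 1.0 wavelength; MR using 1Q3X portions, partial refinement; single pose analysed when several seen.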

[1] = Table A5-2 pharmacophore distance, S3/S4 region
[2] = Table A7-1, between pharmacophore elements of the bound compound
[3] = Table A7-2, between pharmacophore elements of the bound compound

Sequence of MASP-2 CCP2-SP (O00187 445-686): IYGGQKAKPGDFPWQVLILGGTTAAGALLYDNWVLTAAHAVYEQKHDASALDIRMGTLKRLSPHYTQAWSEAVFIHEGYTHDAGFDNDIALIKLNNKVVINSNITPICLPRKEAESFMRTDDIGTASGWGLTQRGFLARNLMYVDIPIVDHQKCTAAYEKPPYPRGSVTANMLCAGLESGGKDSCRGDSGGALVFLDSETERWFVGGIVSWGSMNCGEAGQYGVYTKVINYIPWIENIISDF
Sequence of MASP-2 CCP2-SP (O00187 364-432 partner): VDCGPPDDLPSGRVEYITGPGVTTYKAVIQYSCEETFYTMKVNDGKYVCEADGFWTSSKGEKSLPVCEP

For `Cc1nc(N)ccc1CNC(=O)[C@H](C)NC(=O)[C@H]1C[C@H](Cc2cccc(-c3ccccc3)c2)CN1` [compound 1406, (2R,4S)-4-([1,1′-Biphenyl]-3-ylmethyl)-N—((S)-1-(((6-amino-2-methylpyridin-3-yl)methyl)amino)-1-oxopropan-2-yl)pyrrolidine-2-carboxamide Dihydrochloric acid], the “H-bond distance to MASP-2 ASP 627 atom OD2” value (Table A1 (H-Bonds)) was 3.22, the “H-bond distance to MASP-2 GLY 656 atom N” value (Table A1 (H-Bonds)) was 3.28 and the “H-bond distance to MASP-2 GLY 656 atom O” value (Table A1 (H-Bonds), GLY 656 O) was 2.76. For the same compound, the “H-bond distance to MASP-2 SER 654 atom O” value (Table A1 (H-Bonds)) was 2.96, the “H-bond distance to MASP-2 SER 657 atom O” value (Table A1 (H-Bonds)) was 2.78 and the “van der Waals contact distance, MASP-2 amino acid atom to compound atom” value (Table A2) was 3.74. For the same compound, the “van der Waals contact distance, MASP-2 ASP 526 atom C” value (Table A2-1) was 3.55, the “van der Waals contact distance, MASP-2 ASP 526 atom CA” value (Table A2-1) was 3.89 and the “van der Waals contact distance, MASP-2 ASP 526 atom O” value (Table A2-1) was 3.69. For the same compound, the “van der Waals contact distance, MASP-2 HIS 483 atom CD2” value (Table A2-1) was 3.7, the “van der Waals contact distance, MASP-2 HIS 483 atom NE2” value (Table A2-1) was 3.67 and the “van der Waals contact distance, MASP-2 ALA 527 atom C” value (Table A2-2) was 3.68. For the same compound, the “van der Waals contact distance, MASP-2 ALA 527 atom CA” value (Table A2-2) was 3.83, the “van der Waals contact distance, MASP-2 amino acid atom to compound atom” value (Table A2-7: SER 628 (CB, O, OG)) was 3.76 and the “van der Waals contact distance, SER 654 C to compound atom” value (Table A2-11) was 3.59. For the same compound, the “van der Waals contact distance, VAL 653 CG1 to compound atom” value (Table A2-11) was 3.27, the “van der Waals contact distance TRP 655 atom CE3” value (Table A2-13) was 3.7 and the “van der Waals contact distance TRP 655 atom CZ3” value (Table A2-13) was 3.51. The “van der Waals contact distance TRP 655 atom N” value (Table A2-13, MASP-2 TRP 655 N) was 3.85, the “Ligand-pharmacophore element distance, pharmacophore element C2” value was 0 and the “Ligand-pharmacophore element distance, pharmacophore element C3” value was 0.12. For the same compound, the “Ligand-pharmacophore element distance, pharmacophore element C4” value was 0, the “Ligand-pharmacophore element distance, pharmacophore element C5” value was 0 and the “Ligand-pharmacophore element distance, pharmacophore element C6” value was 0. For the same compound, the “Ligand-pharmacophore element distance, pharmacophore element C7” value was 0, the “Ligand-pharmacophore element distance, pharmacophore element CA1” value was 0.56 and the “Ligand-pharmacophore element distance, pharmacophore element CA2” value was 0.42. The “Ligand-pharmacophore element distance, pharmacophore element CA3” value was 0, the “Ligand-pharmacophore element distance, pharmacophore element CA4” value was 1.59 and the “Ligand-pharmacophore element distance, pharmacophore element CA5” value was 0. The “Ligand-pharmacophore element distance, pharmacophore element CA6” value was 0, the “d(C3,CA1)” value was 2.86 and the “d(CA1,N1)2” value was 1.38. The “d(CA1,O1)” value was 4.36, the “d(CA1,O2)” value was 4.00 and the “d(H4,O1)” value was 4.35. The “d(H4,O2)” value was 3.89, the “d(O1,O2)” value was 3.29 and the “d(N2,CA2)” value [1] was 5.98. The “d(O2,H3)” value [1] was 4.44, the “d(O2,N2)” value [1] was 2.64 and the “a(C3, CA1, O1)” value was 149.47. The “a(CA1, O1, O2)” value was 107.31, the “a(O1, O2, H4)” value was 133.28 and the “a(N1, CA1, O1) b)” value was 173.92. For the same compound, the “a(O1, O2, H3)” value (Table A6-2 pharmacophore angle) was 147.38, the “a(O1, O2, N2)” value (Table A6-2 pharmacophore angle) was 140.17 and the “a(O2, N2, CA2)” value (Table A6-2 pharmacophore angle) was 156.30. The “Pharmacophore torsion angle a(C3, CA1, O1, H4)” value [2] was 23.93, the “Pharmacophore torsion angle a(H4, O1, O2, H3)” value [2] was 50.99 and the “Pharmacophore torsion angle a(H4, O1, O2, N2)” value [2] was 135.75. The “Pharmacophore torsion angle a(N1, CA1, O1, H4)” value [2] was −2.51, the “Pharmacophore torsion angle a(O1, H4, O2, CA1)” value [2] was −83.05 and the “Pharmacophore torsion angle a(O1, O2, N2, CA2)” value [3] was 127.54. The “Pharmacophore torsion angle a(O1, O2, N2, CA4)” value [3] was 102.90.

For `Cc1nc(N)ccc1CNC(=O)[C@H](C)NC(=O)[C@H]1C[C@@H](c2ccccc2)CCN1CCC(=O)O` [compound 1411, 3-((2R,4S)-2-(((S)-1-(((6-Amino-2-methylpyridin-3-yl)methyl)amino)-1-oxopropan-2-yl)carbamoyl)-4-phenylpiperidin-1-yl)propanoic acid Trifluoroacetate salt], the “H-bond distance to MASP-2 ARG 630 atom NE” value (Table A1 (H-Bonds), ARG 630 NE) was 2.66, the “H-bond distance to MASP-2 ASP 627 atom OD2” value (Table A1 (H-Bonds)) was 3.17 and the “H-bond distance to MASP-2 GLY 656 atom N” value (Table A1 (H-Bonds)) was 3.07. For the same compound, the “H-bond distance to MASP-2 SER 628 atom O” value (Table A1 (H-Bonds), SER 628 O) was 3.2, the “H-bond distance to MASP-2 SER 654 atom O” value (Table A1 (H-Bonds)) was 3.06 and the “H-bond distance to MASP-2 SER 657 atom O” value (Table A1 (H-Bonds)) was 2.61. For the same compound, the “van der Waals contact distance, MASP-2 amino acid atom to compound atom” value (Table A2) was 3.8, the “van der Waals contact distance, MASP-2 HIS 483 atom CD2” value (Table A2-1) was 3.51 and the “van der Waals contact distance, MASP-2 HIS 483 atom NE2” value (Table A2-1) was 3.46. For the same compound, the “van der Waals contact distance, MASP-2 GLY 528 atom CA” value (Table A2-2) was 3.85, the “van der Waals contact distance, MASP-2 PHE 529 atom CE1” value (Table A2-3) was 3.69 and the “van der Waals contact distance, VAL 653 CG1 to compound atom” value (Table A2-11) was 3.52. The “van der Waals contact distance TRP 655 atom CE3” value (Table A2-13) was 3.6, the “van der Waals contact distance TRP 655 atom CZ3” value (Table A2-13) was 3.57 and the “Ligand-pharmacophore element distance, pharmacophore element C2” value was 0.42. For the same compound, the “Ligand-pharmacophore element distance, pharmacophore element C3” value was 0.32, the “Ligand-pharmacophore element distance, pharmacophore element C4” value was 0 and the “Ligand-pharmacophore element distance, pharmacophore element C5” value was 0. For the same compound, the “Ligand-pharmacophore element distance, pharmacophore element C6” value was 0, the “Ligand-pharmacophore element distance, pharmacophore element C7” value was 0 and the “Ligand-pharmacophore element distance, pharmacophore element CA1” value was 0.71. For the same compound, the “Ligand-pharmacophore element distance, pharmacophore element CA2” value was 0.52, the “Ligand-pharmacophore element distance, pharmacophore element CA3” value was 0 and the “Ligand-pharmacophore element distance, pharmacophore element CA4” value was 0. The “Ligand-pharmacophore element distance, pharmacophore element CA5” value was 0, the “Ligand-pharmacophore element distance, pharmacophore element CA6” value was 0 and the “d(C3,CA1)” value was 2.87. For the same compound, the “d(CA1,N1)2” value was 1.34, the “d(CA1,O1)” value was 4.37 and the “d(CA1,O2)” value was 4.05. For the same compound, the “d(H4,O1)” value was 4.34, the “d(H4,O2)” value was 3.90 and the “d(O1,O2)” value was 3.50. The “d(N2,C2)” value [1] was 1.46, the “d(N2,CA2)” value [1] was 5.72 and the “d(O2,H3)” value [1] was 4.13. The “d(O2,N2)” value [1] was 2.68, the “a(C3, CA1, O1)” value was 149.02 and the “a(CA1, O1, O2)” value was 109.85. For the same compound, the “a(O1, O2, H4)” value was 130.04, the “a(N1, CA1, O1) b)” value was 173.43 and the “a(O1, O2, H3)” value (Table A6-2 pharmacophore angle) was 142.75. For the same compound, the “a(O1, O2, N2)” value (Table A6-2 pharmacophore angle) was 140.47, the “a(O2, N2, C2)” value (Table A6-2 pharmacophore angle) was 130.32 and the “a(O2, N2, CA2)” value (Table A6-2 pharmacophore angle) was 155.94. The “Pharmacophore torsion angle a(C3, CA1, O1, H4)” value [2] was 24.51, the “Pharmacophore torsion angle a(H4, O1, O2, H3)” value [2] was 55.16 and the “Pharmacophore torsion angle a(H4, O1, O2, N2)” value [2] was 137.13. The “Pharmacophore torsion angle a(N1, CA1, O1, H4)” value [2] was −2.21, the “Pharmacophore torsion angle a(O1, H4, O2, CA1)” value [2] was −82.11 and the “Pharmacophore torsion angle a(O1, O2, N2, C2)” value [2] was 117.46. The “Pharmacophore torsion angle a(O1, O2, N2, CA2)” value [3] was 127.52.
